One assay deals with T1, human μ-opiate receptor (Homo sapiens, UniProt P35372).
T1 construct: purchased PerkinElmer Life Sciences, Zaventem, Belgium RB-HOM; host or cells: CHO-K1 cells (membrane preparation)
Put plainly: Affinity for the human μ-opiate receptor ([3H]-naloxone displacement, SPA). The conditions noted are these: test substance 1 μmol/l, inhibition of specific [3H]-naloxone binding, CHO-K1 receptor membrane preparation; for inhibition at 1 µM: read-out: μ-Opioid receptor [1 μM] % inhibition. A digest of the protocol:
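Membranes from CHO-K1 cells expressing human μ-opiate receptor were incubated 90 min at room temperature with 1 nmol/l [3H]-naloxone and WGA-SPA beads in 50 mmol/l Tris-HCl with 0.06% BSA; non-specific binding was defined with 100 μmol/l naloxone. Percent inhibition was measured at 1 μmol/l, IC50 was derived from concentration series, and Ki was obtained by Cheng-Prusoff.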

The target of assay [1] is T2, human bradykinin receptor 1 (B1R) (Homo sapiens, UniProt P46663).
T2 construct: expressed in transfected cells; host or cells: CHO K1 cells
T2 sequence (P46663 1-353): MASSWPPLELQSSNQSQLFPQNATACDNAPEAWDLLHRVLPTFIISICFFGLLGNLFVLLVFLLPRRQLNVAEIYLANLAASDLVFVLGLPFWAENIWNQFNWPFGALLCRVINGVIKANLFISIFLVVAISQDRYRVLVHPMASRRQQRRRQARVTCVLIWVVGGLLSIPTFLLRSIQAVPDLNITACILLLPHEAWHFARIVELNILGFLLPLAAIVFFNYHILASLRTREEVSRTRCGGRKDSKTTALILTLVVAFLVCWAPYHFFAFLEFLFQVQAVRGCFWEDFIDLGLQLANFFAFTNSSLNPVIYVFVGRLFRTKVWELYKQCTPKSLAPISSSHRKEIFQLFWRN
The assay is described as follows: Functional study on the bradykinin receptor 1 (B1R), human: FLIPR Ca2+ influx assay. Format: cell-based. The conditions noted are these: test substance 10 μM, CHO K1 cells transfected with human B1R, Lys-Des-Arg9-bradykinin at EC80, Ca2+ influx (Fluo-4, FLIPR); for inhibition at 10 µM: read-out: B1R antagonism, human [10 μM] % inhibition. In short, it runs like this: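 CHO K1 cells stably expressing human B1R were loaded with Fluo-4, and Ca2+ fluorescence was read on FLIPR (ex 488/em 540 nm). Compound was added first (10 μM for % activation against Lys-Des-Arg9-bradykinin ≥0.5 nM). After 10-20 min, Lys-Des-Arg9-bradykinin was added at EC80 for % inhibition; IC50 came from concentration series, n=2-3, N≥2.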

Assay [2] addresses T3, bradykinin receptor 1 (B1R) of the rat (Rattus norvegicus, UniProt P97583).
T3 construct: expressed in transfected cells; host or cells: CHO K1 cells
T3 sequence (P97583 1-337): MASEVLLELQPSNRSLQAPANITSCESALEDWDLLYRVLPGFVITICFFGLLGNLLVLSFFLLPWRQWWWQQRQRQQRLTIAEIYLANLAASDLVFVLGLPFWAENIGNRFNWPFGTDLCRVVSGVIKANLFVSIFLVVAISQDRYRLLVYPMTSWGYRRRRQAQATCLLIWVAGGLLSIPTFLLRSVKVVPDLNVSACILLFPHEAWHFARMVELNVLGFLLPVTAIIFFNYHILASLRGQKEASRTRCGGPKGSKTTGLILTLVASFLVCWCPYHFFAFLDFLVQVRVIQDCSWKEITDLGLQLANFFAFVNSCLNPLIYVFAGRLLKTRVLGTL
Put plainly: Functional study on the bradykinin receptor 1 (B1R), rat: FLIPR Ca2+ influx assay. Format: cell-based. The conditions noted are these: test substance 10 μM, CHO K1 cells transfected with rat B1R, Des-Arg9-bradykinin at EC80, Ca2+ influx (Fluo-4, FLIPR); for inhibition at 10 µM: read-out: B1R antagonism, rat [10 μM] % inhibition. In short, it runs like this:
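CHO K1 cells stably expressing rat B1R, Fluo-4-loaded, read on FLIPR (ex 488/em 540 nm, peak fluorescence). Test substances added first (agonism vs 10 μM Des-Arg9-bradykinin), then after 10-20 min Des-Arg9-bradykinin at EC80; % inhibition and IC50 from concentration series, n=2-3, N≥2.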

T1 sequence (P35372 whole entry): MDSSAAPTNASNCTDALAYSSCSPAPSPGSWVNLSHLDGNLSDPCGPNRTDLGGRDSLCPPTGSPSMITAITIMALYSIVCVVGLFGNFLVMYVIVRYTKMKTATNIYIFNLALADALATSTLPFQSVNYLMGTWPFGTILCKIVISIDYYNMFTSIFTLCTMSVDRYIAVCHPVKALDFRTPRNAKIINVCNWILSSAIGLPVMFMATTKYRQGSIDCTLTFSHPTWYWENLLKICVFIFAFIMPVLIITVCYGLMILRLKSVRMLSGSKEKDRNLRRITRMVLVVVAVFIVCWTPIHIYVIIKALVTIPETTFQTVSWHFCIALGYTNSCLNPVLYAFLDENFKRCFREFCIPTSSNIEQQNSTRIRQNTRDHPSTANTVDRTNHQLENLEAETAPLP

Usually inhibition stands for the drop in the measured response relative to a control, in per cent. Regarding `O=C(CC1CCCN1S(=O)(=O)c1ccc(Cl)c(Cl)c1)NC1CCC(C(c2ccccc2)N2CCOCC2)CC1` (stereo not drawn) [Example 104, 2-(1-(3,4-dichlorophenylsulfonyl)pyrrolidin-2-yl)-N-(4-(morpholino(phenyl)methyl)cyclohexyl)acetamide], the inhibition at 1 µM on human μ-opiate receptor is 11%. For the same molecule, the inhibition at 10 µM worked out at 32.8% in assay [1] and 13% in assay [2].
For `O=C(CC1CCCN1S(=O)(=O)c1ccc(Cl)c(Cl)c1)NC1CCC(C(c2ccccc2)N2CCCC2)CC1` (stereo not drawn) [Example 105, 2-(1-(3,4-dichlorophenylsulfonyl)pyrrolidin-2-yl)-N-(4-(phenyl(pyrrolidin-1-yl)methyl)cyclohexyl)acetamide] the same measures were 76%, 99.5% and 24%.
`O=C(CC1CCCCN1S(=O)(=O)c1ccc(Cl)c(Cl)c1)NC1CCC(C(c2ccccc2)N2CCOCC2)CC1` (stereo not drawn) [Example 106, 2-(1-(3,4-dichlorophenylsulfonyl)piperidin-2-yl)-N-(4-(morpholino(phenyl)methyl)cyclohexyl)acetamide]: on human μ-opiate receptor, the inhibition at 1 µM is 21%. The inhibition at 10 µM amounted to 48.3% in assay [1] and 19% in assay [2].
In the same order, the values of `O=C(CC1CCCCN1S(=O)(=O)c1ccc(Cl)c(Cl)c1)NC1CCC(C(c2ccccc2)N2CCCC2)CC1` (stereo not drawn) [Example 107, 2-(1-(3,4-dichlorophenylsulfonyl)piperidin-2-yl)-N-(4-(phenyl(pyrrolidin-1-yl)methyl)cyclohexyl)acetamide] are 78%, 102% and 26%.
In the same order, the values of `CN1CCN(C(c2ccccc2)C2CCN(C(=O)CC3CCCCN3S(=O)(=O)c3cccc(C(F)(F)F)c3)CC2)CC1` (stereo not drawn) [Example 108, 1-(4-((4-methylpiperazin-1-yl)(phenyl)methyl)piperidin-1-yl)-2-(1-(3-(trifluoromethyl)phenylsulfonyl)piperidin-2-yl)ethanone] are 6%, 97% and 78%.
In the same order, the values of `CN1CCN(C(c2ccc(F)cc2)C2CCN(C(=O)CC3CCCCN3S(=O)(=O)c3cccc(C(F)(F)F)c3)CC2)CC1` (stereo not drawn) [Example 109, 1-(4-((4-fluorophenyl)(4-methylpiperazin-1-yl)methyl)piperidin-1-yl)-2-(1-(3-(trifluoromethyl)phenylsulfonyl)piperidin-2-yl)ethanone] are 5%, 102% and 99%.
In the case of `CN1CCN(C(c2cccc(F)c2)C2CCN(C(=O)CC(NS(=O)(=O)c3ccc4ccccc4c3)c3ccccc3)CC2)CC1` (stereo not drawn) [Example 110, N-(3-(4-((3-fluorophenyl)(4-methylpiperazin-1-yl)methyl)piperidin-1-yl)-3-oxo-1-phenylpropyl)naphthalene-2-sulfonamide], the inhibition at 1 µM on human μ-opiate receptor stood at 3%. Further, the inhibition at 10 µM in assay [1] came to 102%; in assay [2] it was 100%.
For the molecule `CN1CCN(C(Cc2ccccc2)C2CCN(C(=O)CC3CCCCN3S(=O)(=O)c3cccc(C(F)(F)F)c3)CC2)CC1` (stereo not drawn) [Example 111, 1-(4-(1-(4-methylpiperazin-1-yl)-2-phenylethyl)piperidin-1-yl)-2-(1-(3-(trifluoromethyl)phenylsulfonyl)piperidin-2-yl)ethanone], on human μ-opiate receptor, the inhibition at 1 µM was -2%. Also, the inhibition at 10 µM in assay [1] came out at 94%; in assay [2], 61%.
Turning to `CN1CCN(C(c2ccccc2)C2CCN(C(=O)CC(NS(=O)(=O)c3ccc4ccccc4c3)c3ccccc3)CC2)CC1` (stereo not drawn) [Example 114, N-(3-(4-((4-methylpiperazin-1-yl)(phenyl)methyl)piperidin-1-yl)-3-oxo-1-phenylpropyl)naphthalene-2-sulfonamide], on human μ-opiate receptor, the inhibition at 1 µM is 40%. In addition, the results for the inhibition at 10 µM in assay [1] and in assay [2] were 93% and 71%, respectively.
As for `CN1CCN(C(c2cccc(F)c2)C2CCN(C(=O)CC3CCCCN3S(=O)(=O)c3cccc(C(F)(F)F)c3)CC2)CC1` (stereo not drawn) [Example 115, 1-(4-((3-fluorophenyl)(4-methylpiperazin-1-yl)methyl)piperidin-1-yl)-2-(1-(3-(trifluoromethyl)phenylsulfonyl)piperidin-2-yl)ethanone], the inhibition at 1 µM on human μ-opiate receptor stood at 11%. The inhibition at 10 µM was 87% in assay [1] and 52% in assay [2].
For `CN1CCN(C(Cc2ccccc2)C2CCN(C(=O)CC(NS(=O)(=O)c3ccc4ccccc4c3)c3ccccc3)CC2)CC1` (stereo not drawn) [Example 116, N-(3-(4-(1-(4-methylpiperazin-1-yl)-2-phenylethyl)piperidin-1-yl)-3-oxo-1-phenylpropyl)naphthalene-2-sulfonamide] the same measures were 7%, 102% and 93%.
For the molecule `Cc1cc(S(=O)(=O)N2CCCCC2CCC(=O)N2CCC(C(Cc3ccccc3)N3CCN(C)CC3)CC2)c(C)cc1Cl` (stereo not drawn) [Example 118, 3-(1-(4-chloro-2,5-dimethylphenylsulfonyl)piperidin-2-yl)-1-(4-(1-(4-methyl-piperazin-1-yl)-2-phenylethyl)piperidin-1-yl)propan-1-one], the inhibition at 1 µM on human μ-opiate receptor was found to be 3%. Further, the values for the inhibition at 10 µM in assay [1] and in assay [2] were 101% and 93%, respectively.
For the molecule `Cc1cc(S(=O)(=O)N2CCCCC2CCC(=O)N2CCC(C(CCc3ccccc3)N3CCN(C)CC3)CC2)c(C)cc1Cl` (stereo not drawn) [Example 119, 3-(1-(4-chloro-2,5-dimethylphenylsulfonyl)piperidin-2-yl)-1-(4-(1-(4-methyl-piperazin-1-yl)-3-phenylpropyl)piperidin-1-yl)propan-1-one], the inhibition at 1 µM at human μ-opiate receptor amounted to 52%. For the same molecule, the inhibition at 10 µM in assay [1] turned out to be 102%; in assay [2], 97%.
On to `Cc1cc(S(=O)(=O)N2CCCCC2CCC(=O)N2CCC(C(c3cccc(F)c3)N3CCN(C)CC3)CC2)c(C)cc1Cl` (stereo not drawn) [Example 120, 3-(1-(4-chloro-2,5-dimethylphenylsulfonyl)piperidin-2-yl)-1-(4-((3-fluorophenyl)(4-methylpiperazin-1-yl)methyl)piperidin-1-yl)propan-1-one], for which the inhibition at 1 µM at human μ-opiate receptor was 41%. Also, the inhibition at 10 µM came to 105% in assay [1] and 73% in assay [2].
In the same order, the values of `Cc1cc(S(=O)(=O)N2CCCCC2CCC(=O)N2CCC(C(c3ccc(F)cc3)N3CCN(C)CC3)CC2)c(C)cc1Cl` (stereo not drawn) [Example 121, 3-(1-(4-chloro-2,5-dimethylphenylsulfonyl)piperidin-2-yl)-1-(4-((4-fluorophenyl)(4-methylpiperazin-1-yl)methyl)piperidin-1-yl)propan-1-one] are 6%, 105% and 58%.
Take “N-(3-(4-(1-(4-methylpiperazin-1-yl)-3-phenylpropyl)piperidin-1-yl)-3-oxo-1-phenylpropyl)naphthalene-2-sulfonamide [Example 113]”: the “μ-Opioid receptor [1 μM] % inhibition” value at human μ-opiate receptor came out at 21%. In addition, the “B1R antagonism, human [10 μM] % inhibition” value in assay [1] was 97%. In assay [2], the “B1R antagonism, rat [10 μM] % inhibition” value worked out at 39%.

These data come from patent US8119633B2, “Substituted sulfonamide compounds” (Gruenenthal GmbH, priority 2007, dated 2012).
